Data reported in patent US7750135B2, “Molecular design of thermostable alcohol dehydrogenase for synthesis for chiral aromatic alcohols” (Board of Trustees of Michigan State University, priority 2007, dated 2010).
Read-outs that look alike come from different tables or passages of the source.

Assays:
Y267G TeSADH = target: T1, Y267G TeSADH (Thermoanaerobacter brockii, UniProt P14941, A186D/Y267G); assay type: biochemical, Thermoanaerobacter ethanolicus; conditions: heat-treated crude extracts
T1 construct: His6 (C); made in house; host or cells: E. coli, pET24a(+); heat-treated crude extract
Procedure: (§1) J. 302:163-170), with (rac)-2-butanol, (rac)-1-phenethyl alcohol, (rac)-1-phenyl-2-propanol, (rac)-4-phenyl-2-butanol, and phenylacetone as substrates. Assays were done in the presence of 50 mM Tris-HCl [pH 8.0] and 0.4 mM NADP^+ (alcohol oxidation), or pH 6.5 and 0.4 mM NADPH (ketone reduction). Initial velocity was measured spectrophotometrically at 60° C. by following NADPH production (alcohol oxidation) or consumption (ketone reduction) at 340 nm for 1 min in a Varian Cary 300 UV/Vis spectrophotometer equipped with a Peltier heating system. The enzyme was preincubated for at least 5 min at 40° C. before being added to the assays. […] One unit of activity was defined as the amount of enzyme needed to consume or produce 1 μmol of NADPH per minute.

wild-type (WT) TeSADH = target: T2, wild-type (WT) TeSADH (Thermoanaerobacter brockii, UniProt P14941, A186D); assay type: biochemical, Thermoanaerobacter ethanolicus; conditions: 60° C., 1 min, 50 mM Tris-HCl pH~6.5 (ketones) or pH~8.0 (alcohols), 0.4 mM NADP(H)
T2 construct: made in house; the wild-type adhB gene sat in plasmid pADHBIM1-kan
Procedure: as §1

Wild-type TeSADH [1] = target: T3, Wild-type TeSADH (Thermoanaerobacter brockii, UniProt P14941, A186D); assay type: biochemical, Thermoanaerobacter ethanolicus; set-up: made in house; the wild-type adhB gene sat in plasmid pADHBIM1-kan; conditions: heat-treated crude extracts
Procedure: as §1

Wild-type TeSADH [2] = target: T3, Wild-type TeSADH; conditions: 60° C., 1 min, 50 mM Tris-HCl pH ~8.0 (alcohols) or ~6.5 (ketones), 0.4 mM NADP(H)
Procedure: At least eight substrate concentrations were used for each data set and each set was performed in triplicate.

[3] = enzyme concentration estimated by SDS-PAGE

T2 sequence (P14941 whole entry A186D): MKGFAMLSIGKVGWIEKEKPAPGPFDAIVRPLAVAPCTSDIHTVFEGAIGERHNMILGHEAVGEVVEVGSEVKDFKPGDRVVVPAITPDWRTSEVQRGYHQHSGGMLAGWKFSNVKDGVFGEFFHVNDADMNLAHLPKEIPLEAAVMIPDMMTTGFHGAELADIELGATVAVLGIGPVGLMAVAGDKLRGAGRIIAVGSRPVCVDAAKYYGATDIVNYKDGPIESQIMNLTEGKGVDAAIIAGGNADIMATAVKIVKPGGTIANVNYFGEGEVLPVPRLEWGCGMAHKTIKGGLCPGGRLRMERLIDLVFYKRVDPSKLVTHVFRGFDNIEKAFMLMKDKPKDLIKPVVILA
T3 sequence (P14941 whole entry A186D): as above
T1 sequence (P14941 whole entry A186D/Y267G): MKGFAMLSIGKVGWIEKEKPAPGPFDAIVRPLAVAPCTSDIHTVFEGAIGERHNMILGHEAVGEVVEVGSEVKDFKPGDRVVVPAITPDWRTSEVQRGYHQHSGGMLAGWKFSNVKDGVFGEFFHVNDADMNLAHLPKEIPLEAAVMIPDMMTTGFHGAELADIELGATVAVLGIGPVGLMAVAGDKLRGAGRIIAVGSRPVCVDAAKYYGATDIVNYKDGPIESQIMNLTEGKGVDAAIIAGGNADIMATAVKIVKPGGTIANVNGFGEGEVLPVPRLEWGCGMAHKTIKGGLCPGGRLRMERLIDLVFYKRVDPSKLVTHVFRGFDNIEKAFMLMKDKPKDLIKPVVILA

| SMILES | Activity of Y267G TeSADH (Y267G TeSADH) | Specific activity, WT (wild-type (WT) TeSADH; substrate 7.5 mM) | further results |
| --- | --- | --- | --- |
| CC(O)c1ccccc1 (racemic) [(rac)-1-Phenethyl alcohol] | no detectable activity | – | Specific activity, WT (wild-type (WT) TeSADH; substrate 10 mM): 0.15 U(umol)/mg protein |
| CC(O)Cc1ccccc1 (racemic) [(rac)-1-phenyl-2-propanol] | no detectable activity | – | Specific activity, WT (wild-type (WT) TeSADH; substrate 10 mM): 0.14 U(umol)/mg protein |
| CC(O)CCc1ccccc1 (racemic) [(rac)-4-Phenyl-2-butanol] | no detectable activity | 0.29 U(umol)/mg protein | – |
| CC(=O)CCc1ccccc1 [1a, 4-Phenyl-2-butanone] | – | 5.94 U(umol)/mg protein | Activity of wild-type TeSADH (Wild-type TeSADH [1]): only slight activity |
| CCC(C)O (stereo not drawn) [2-Butanol] | – | 45.27 U(umol)/mg protein | Specific activity of Y267G TeSADH (Y267G TeSADH; [3]): ~33 U/mg; Vmax (app), Wild-type TeSADH (Wild-type TeSADH [2]): 37 U/mg; Km (Wild-type TeSADH [2]; read-out: Km (app), Wild-type TeSADH): 510 µM; Specific activity of wild-type TeSADH (Wild-type TeSADH [1]; [3]): ~41 U/mg |
| CC(=O)Cc1ccccc1 [7a, 1-phenyl-2-propanone] | – | 1.02 U(umol)/mg protein | – |
| CC(=O)c1ccccc1 [Acetophenone] | – | 0.90 U(umol)/mg protein | – |
